Data set [1] can be described thus: Cytotoxicity against human TZM-bl cells assessed as reduction in viability after 2 days by XTT assay. The format is cell-based. (Formazan colour is commonly taken as a measure of viable cells.)
Data set [2] concerns the target Envelope glycoprotein gp160 (Human immunodeficiency virus 1) (UniProt Q6QLK5). As to the kind of experiment: Binding affinity to HIV1 GP41 using GP41 NHR derived N36 peptide assessed as formation of secondary structure at 10 uM incubated for 30 mins by CD spectroscopy.
For data set [3] the target is unchanged. The experiment in a line: Binding affinity to HIV1 GP41 using GP41 NHR derived N36 peptide at 500 uM incubated for 30 mins by size exclusion HPLC analysis. In general terms: In gel filtration, larger molecules generally elute earlier.
Data set [4] relates to Human immunodeficiency virus 1. As to the kind of experiment: Synergistic antiviral activity against X4 tropic HIV-1 subtype-B 3B infected in human MT2 cells or CEMx174 5.25 M7 cells assessed as reduction in p24 Gag protein production by measuring combination index at 12:1 compound to HP23 ratio measured at 4 days post-infection by ELISA. The data set is classed as functional, HIV-1 group M. Background: In an ELISA, binding on a coated surface is turned into a signal by an enzyme label.

Data set [5] deals with Human immunodeficiency virus 1. As to the kind of experiment: Ratio of EC50 for antiviral activity against X4 tropic HIV-1 subtype-B 3B infected in human MT2 cells or CEMx174 5.25 M7 cells in absence of HP23 to EC50 for antiviral activity against X4 tropic HIV-1 subtype-B 3B infected in human MT2 cells or CEMx174 5.25 M7 cells at 6:1 compound to HP23 ratio. The data set is classed as functional, HIV-1 group M.

Data set [6] deals with Human immunodeficiency virus 1. The experiment in a line: Synergistic antiviral activity against R5 tropic HIV-1 subtype-B Bal infected in human MT2 cells or CEMx174 5.25 M7 cells assessed as reduction in p24 Gag protein production by measuring combination index at 12:1 ratio of hCS6ERE to compound measured at 4 days post-infection by ELISA. The data set is classed as functional, HIV-1 group M.

For data set [7], the system named is Human immunodeficiency virus 1. As to the kind of experiment: Synergistic antiviral activity against HIV1 NL4-3 infected in human MT2 cells or CEMx174 5.25 M7 cells assessed as reduction in p24 Gag protein production by measuring combination index at 5:1 compound to HP23 ratio measured at 4 days post-infection by ELISA. The data set is classed as functional.

Data set [8] has as its system Human immunodeficiency virus 1. The experiment in a line: Ratio of EC50 for antiviral activity against HIV1 NL4-3 infected in human MT2 cells or CEMx174 5.25 M7 cells in absence of HP23 to EC50 for antiviral activity against HIV1 NL4-3 infected in human MT2 cells or CEMx174 5.25 M7 cells at 5:1 compound to HP23 ratio. The data set is classed as functional.
Data set [9] deals with Human immunodeficiency virus 1. The experiment in a line: Synergistic antiviral activity against T20 resistant HIV1 NL4-3 harboring with V38E/N42S mutant infected in human MT2 cells or CEMx174 5.25 M7 cells assessed as reduction in p24 Gag protein production by measuring combination index at 7000:1 compound to HP23 ratio measured at 4 days post-infection by ELISA. The data set is classed as functional.

In data set [10] the test system is Human immunodeficiency virus 1. The experiment in a line: Synergistic antiviral activity against T20 resistant HIV1 NL4-3 harboring with V38E/N42T mutant infected in human MT2 cells or CEMx174 5.25 M7 cells assessed as reduction in p24 Gag protein production by measuring combination index at 600:1 compound to HP23 ratio measured at 4 days post-infection by ELISA. The format is functional.

The test system of data set [11] is Human immunodeficiency virus 1. As to the kind of experiment: Ratio of EC50 for antiviral activity against T20 resistant HIV1 NL4-3 harboring with V38E/N42T mutant infected in human MT2 cells or CEMx174 5.25 M7 cells in absence of HP23 to EC50 for Antiviral activity against T20 resistant HIV1 NL4-3 harboring with V38E/N42T mutant infected in human MT2 cells or CEMx174 5.25 M7 cells at 150:1 compound to HP23 ratio. The format is functional.

In data set [12] the test system is Human immunodeficiency virus 1. The experiment in a line: Ratio of EC50 for antiviral activity against T20 resistant HIV1 NL4-3 harboring with V38E/N42T mutant infected in human MT2 cells or CEMx174 5.25 M7 cells in absence of HP23 to EC50 for Antiviral activity against T20 resistant HIV1 NL4-3 harboring with V38E/N42T mutant infected in human MT2 cells or CEMx174 5.25 M7 cells at 300:1 compound to HP23 ratio. The format is functional.

The test system of data set [13] is Human immunodeficiency virus 1. As to the kind of experiment: Antiviral activity against X4 tropic HIV-1 subtype-B 3B infected in human MT2 cells or CEMx174 5.25 M7 cells assessed as reduction in p24 Gag protein production at 12:1 ratio of hCS6ERE to compound measured at 4 days post-infection by ELISA. The data set is classed as functional, cell-based, HIV-1 group M. The conditions noted are these: Human immunodeficiency virus 1, 3B, 96 h.

Data set [14] deals with Human immunodeficiency virus 1. As to the kind of experiment: Antiviral activity against R5 tropic HIV-1 subtype-B Bal infected in human MT2 cells or CEMx174 5.25 M7 cells assessed as reduction in p24 Gag protein production at 3:1 ratio of hCS6ERE to compound measured at 4 days post-infection by ELISA. The conditions noted are these: Human immunodeficiency virus 1, Bal, 96 h. The data set is classed as functional, cell-based, HIV-1 group M.

Data set [15] deals with Human immunodeficiency virus 1. The experiment in a line: Ratio of EC50 for antiviral activity against HIV1 NL4-3 infected in human MT2 cells or CEMx174 5.25 M7 cells in absence of hCS6ERE to EC50 for antiviral activity against HIV1 NL4-3 infected in human MT2 cells or CEMx174 5.25 M7 cells at 5:1 hCS6ERE to compound ratio. The format is functional.
For data set [16], the system named is Human immunodeficiency virus 1. The experiment in a line: Antiviral activity against T20 resistant HIV1 NL4-3 harboring with V38E/N42S mutant infected in human MT2 cells or CEMx174 5.25 M7 cells assessed as reduction in p24 Gag protein production at 3500:1 hCS6ERE to compound ratio measured at 4 days post-infection by ELISA. The format is functional, organism-based.

The subject of data set [17] is Human immunodeficiency virus 1. The experiment in a line: Antiviral activity against T20 resistant HIV1 NL4-3 harboring with V38E/N42S mutant infected in human MT2 cells or CEMx174 5.25 M7 cells assessed as reduction in p24 Gag protein production at 7000:1 hCS6ERE to compound ratio measured at 4 days post-infection by ELISA. The format is functional, organism-based.

Data set [18] deals with Human immunodeficiency virus 1. As to the kind of experiment: Ratio of EC50 for antiviral activity against T20 resistant HIV1 NL4-3 harboring with V38E/N42S mutant infected in human MT2 cells or CEMx174 5.25 M7 cells in absence of hCS6ERE to EC50 for antiviral activity against T20 resistant HIV1 NL4-3 harboring with V38E/N42S mutant infected in human MT2 cells or CEMx174 5.25 M7 cells at 7000:1 hCS6ERE to compound ratio. The format is functional.

For data set [19], the system named is Human immunodeficiency virus 1. The experiment in a line: Antiviral activity against T20 resistant HIV1 NL4-3 harboring with V38E/N42T mutant infected in human MT2 cells or CEMx174 5.25 M7 cells assessed as reduction in p24 Gag protein production at 300:1 hCS6ERE to compound ratio measured at 4 days post-infection by ELISA. The format is functional, organism-based.

For data set [20], the system named is Human immunodeficiency virus 1. The experiment in a line: Antiviral activity against T2635 resistant HIV1 LAI harboring Q66R mutant infected in human MT2 cells or CEMx174 5.25 M7 cells assessed as reduction in p24 Gag protein production at 25:1 ratio of hCS6ERE to compound measured at 4 days post infection by ELISA. The format is functional, organism-based, M:B_Lai.

For data set [21], the system named is Human immunodeficiency virus 1. As to the kind of experiment: Antiviral activity against T2635 resistant HIV1 LAI harboring Q66R mutant infected in human MT2 cells or CEMx174 5.25 M7 cells assessed as reduction in p24 Gag protein production at 50:1 ratio of hCS6ERE to compound measured at 4 days post infection by ELISA. The data set is classed as functional, organism-based, M:B_Lai.

Consider 2 compounds from ChEMBL document CHEMBL4334495, “Design and Biological Evaluation of m-Xylene Thioether-Stapled Short Helical Peptides Targeting the HIV-1 gp41 Hexameric Coiled-Coil Fusion Complex” (J Med Chem, 2019).

Calls of active or inactive are those of the source. The calls are words filed in the database; no cut-off is given here. Starred links: 1 amine or outer side, 2 acyl side, 3 side chain; linkers in the order of their positions; H or OH if unused. Positions of bridges follow the written chain, without caps; N, C: chain ends. Non-standard residues stand in square brackets, D forms with d. Residues, ends and D or L forms follow the SMILES beside them. ξ: configuration not given here. mXylylene = c1cc(C[*:1])cc(C[*:2])c1; ξhCys = NC(CCS)C(=O)O

Chain of Envelope glycoprotein gp160 (Human immunodeficiency virus 1) (Q6QLK5 1-814): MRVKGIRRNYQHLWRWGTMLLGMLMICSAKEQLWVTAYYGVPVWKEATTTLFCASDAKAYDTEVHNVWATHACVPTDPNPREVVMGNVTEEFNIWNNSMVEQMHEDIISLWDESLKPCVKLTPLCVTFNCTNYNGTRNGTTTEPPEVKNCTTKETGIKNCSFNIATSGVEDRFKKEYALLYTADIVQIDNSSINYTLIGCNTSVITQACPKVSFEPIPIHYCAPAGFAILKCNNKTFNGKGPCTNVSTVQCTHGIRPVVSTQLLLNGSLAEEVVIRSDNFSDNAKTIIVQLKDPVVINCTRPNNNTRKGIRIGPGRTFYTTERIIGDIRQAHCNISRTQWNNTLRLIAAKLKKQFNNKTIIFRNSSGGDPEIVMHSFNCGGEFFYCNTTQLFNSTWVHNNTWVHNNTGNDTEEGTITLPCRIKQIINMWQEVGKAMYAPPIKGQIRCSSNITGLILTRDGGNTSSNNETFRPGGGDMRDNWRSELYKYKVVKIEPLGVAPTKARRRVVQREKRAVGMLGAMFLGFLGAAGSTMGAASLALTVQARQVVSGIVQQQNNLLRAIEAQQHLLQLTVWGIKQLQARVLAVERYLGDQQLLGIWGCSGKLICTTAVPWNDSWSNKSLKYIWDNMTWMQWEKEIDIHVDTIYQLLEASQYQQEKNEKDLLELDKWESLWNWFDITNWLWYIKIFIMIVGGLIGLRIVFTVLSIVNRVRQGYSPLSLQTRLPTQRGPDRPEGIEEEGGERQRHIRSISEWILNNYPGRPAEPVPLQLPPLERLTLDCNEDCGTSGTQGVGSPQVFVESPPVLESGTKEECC

Broadly, the CC50 is the concentration giving 50% cytotoxicity. Take `CC[C@H](C)[C@H](NC(C)=O)C(=O)N[C@@H](CCC(=O)O)C(=O)N[C@@H](CCC(=O)O)C(=O)N[C@@H](CC(C)C)C(=O)N[C@H](C(=O)NC1CCSCc2cccc(c2)CSCCC(C(=O)N[C@@H](CCC(N)=O)C(=O)N[C@@H](CCC(N)=O)C(=O)N[C@@H](CCCNC(=N)N)C(=O)N[C@@H](CCCCN)C(=O)N[C@@H](CC(N)=O)C(=O)N[C@@H](CCC(=O)O)C(=O)N[C@@H](CCC(=O)O)C(=O)N[C@@H](C)C(=O)N[C@@H](CC(C)C)C(=O)N[C@@H](CCCNC(=N)N)C(=O)N[C@@H](CCC(=O)O)C(=O)N[C@@H](CC(C)C)C(N)=O)NC(=O)[C@H](CCC(N)=O)NC(=O)[C@H](C)NC(=O)[C@H](C)NC1=O)[C@@H](C)CC` (stereo partly specified) (Ac-IEELI[ξhCys]AAQ[ξhCys]QQRKNEEALREL-NH2; linker 6-10 via mXylylene): the CC50 at 48 h in data set [1] was greater than 800000 nM. The result in [2] and in [3] was Active. In addition, the CI in [4] was found to be 0.7; in data set [6], 0.6; in data set [7], 0.4; in data set [9], 0.6; in data set [10] it was 0.7. For the same compound, the “Ratio EC50” value worked out at 3.6 in data set [5], 5 in data set [8], 3.1 in data set [11] and 2.3 in data set [12].
By EC50 is commonly meant the concentration at which the effect is half-maximal. As for H-EMTWEEWEKKIEEYTKKIEEILK-OH, the 50% effective concentration (EC50) amounted to 0.9 nM in [13]; 1.4 nM in data set [14]; 0.6 nM in [16]; 0.4 nM in data set [17]; 1.4 nM in data set [19]; 1.5 nM in data set [20]. Also, the EC50 in data set [21] is 0.5 nM. Moreover, the “Ratio EC50” value amounted to 3.8 in [15] and 3.5 in [18].
